Data: patent US10335399B2, “Chromane, isochromane and dihydroisobenzofuran derivatives as mGluR2—negative allosteric modulators, compositions, and their use” (Merck Sharp & Dohme Corp., priority 2016, dated 2019)

Target: recombinant human mGluR2 (Homo sapiens (Human), UniProt Q14416)
Assay: FLIPR Ca2+ mobilization assay: inhibition of glutamate-dependent mGluR2 activity
Format: cell-based
Conditions: CHO dhfr- cells stably expressing recombinant human mGluR2 and Gα16, Fluo-4 AM, FLIPR384; inhibition of response to 2,500 nM glutamate
Experimental: Inhibition constants (IC50s; the concentration of compound required to provide 50% of maximal activity) are determined as follows. The compounds of the invention were tested in a fluorescence laser imaging plate reader based assay. This assay is a common functional assay to monitor Ca^2+ mobilization in whole cells expressing recombinant receptor coupled with a promiscuous G-protein. CHO (Chinese hamster ovary) dhfr− cells stably expressing recombinant human mGluR2 and Gα16 loaded with Fluo-4 AM (Invitrogen, Carlsbad Calif., USA) were treated with various concentrations of each of the tested compounds of the invention and the Ca^2+ response was monitored on a FLIPR384 instrument (Molecular Devices, Sunnydale Calif., USA). […] The maximum calcium response at each concentration of compound for agonist or antagonist were plotted as dose responses and the curves were fitted with a four parameter logistic equation giving IC50 and Hill coefficient using the iterative non-linear curve fitting software ADA (Merck & Co., Inc.). Data in the following table lists the activity of each compound to inhibit glutamate-dependent mGluR2 activity in this cellular assay.

Chain of recombinant human mGluR2 (Q14416 19-872): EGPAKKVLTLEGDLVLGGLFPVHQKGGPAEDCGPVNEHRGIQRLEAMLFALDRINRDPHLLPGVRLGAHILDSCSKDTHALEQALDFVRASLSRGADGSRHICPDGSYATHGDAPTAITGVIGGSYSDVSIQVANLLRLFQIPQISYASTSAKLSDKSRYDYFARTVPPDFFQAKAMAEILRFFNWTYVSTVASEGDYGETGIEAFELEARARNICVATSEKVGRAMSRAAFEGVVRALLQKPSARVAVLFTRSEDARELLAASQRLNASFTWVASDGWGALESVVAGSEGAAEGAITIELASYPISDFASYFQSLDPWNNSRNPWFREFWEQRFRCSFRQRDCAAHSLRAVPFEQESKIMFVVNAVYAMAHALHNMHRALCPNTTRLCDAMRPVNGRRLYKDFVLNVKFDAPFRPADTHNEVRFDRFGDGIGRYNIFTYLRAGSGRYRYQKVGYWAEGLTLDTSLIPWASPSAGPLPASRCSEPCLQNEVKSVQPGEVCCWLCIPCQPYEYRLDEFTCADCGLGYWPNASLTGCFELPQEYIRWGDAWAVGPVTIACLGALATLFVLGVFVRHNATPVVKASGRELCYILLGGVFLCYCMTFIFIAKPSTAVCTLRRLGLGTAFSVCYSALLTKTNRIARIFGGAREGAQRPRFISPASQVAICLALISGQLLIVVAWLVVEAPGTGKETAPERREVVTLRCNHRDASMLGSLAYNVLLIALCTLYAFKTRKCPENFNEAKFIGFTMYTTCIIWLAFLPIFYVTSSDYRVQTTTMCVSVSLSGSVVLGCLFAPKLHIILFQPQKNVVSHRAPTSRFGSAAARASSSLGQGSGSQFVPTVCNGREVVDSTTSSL

IC50 [nM] | SMILES
14 | C[C@]1(COC(F)F)CCc2c(-c3ccc(F)cc3F)cc(C(N)=O)nc2O1 (single isomer, unassigned) [Example 2-8B]
26 | C[C@H]1CCc2c(-c3ccc(F)cc3F)cc(C(N)=O)nc2O1 (single isomer, unassigned) [Example 2-6B]
32 | NC(=O)c1cc(-c2ccc(F)cc2F)c2c(n1)O[C@H](C1CC1)CC2 [Example 2-3B, (S)-2-cyclopropyl-5-(2,4-difluorophenyl)-3,4-dihydro-2H-pyrano[2,3-b]pyridine-7-carboxamide]
274 | NC(=O)c1cc(-c2cnn(C(F)F)c2)c2c(n1)OC(COC(F)F)CC2 (single isomer, unassigned) [Example 3-4A, (S)- or (R)-2-((difluoro-methoxy)methyl)-5-(1-(difluoromethyl)-1H-pyrazol-4-yl)-3,4-dihydro-2H-pyrano[2,3-b]pyridine-7-carboxamide]
18 | NC(=O)c1cc(-c2ccc(F)cc2F)c2c(n1)O[C@@H](C(F)F)CC2 [Example 3-7A, (R)-2-(difluoromethyl)-5-(2,4-difluorophenyl)-3,4-dihydro-2H-pyrano[2,3-b]pyridine-7-carboxamide]
25 | CN(C[C@@H]1CCc2c(-c3ccc(F)cc3F)cc(C(N)=O)nc2O1)CC(F)(F)F (single isomer, unassigned) [Example 4-1A]
12 | NC(=O)c1cc(-c2ccc(Cl)cc2F)c2c(n1)[C@@H]1CC[C@H](C2)O1 (single isomer, unassigned) [Example 1-3B, (6R,9S)- or (6S,9R)-4-(4-chloro-2-fluorophenyl)-6,7,8,9-tetrahydro-5H-6,9-epoxycyclo-hepta[b]pyridine-2-carboxamide]
35 | C[C@@H]1Cc2c(-c3ccc(F)cc3F)cc(C(N)=O)nc2O[C@H]1CO [Example 2-2C, (2R,3R)-5-(2,4-difluorophenyl)-2-(hydroxymethyl)-3-methyl-3,4-dihydro-2H-pyrano[2,3-b]pyridine-7-carboxamide]
> 3000 | NC(=O)c1cc(-c2ncc(Cl)cc2F)c2c(n1)[C@H]1CC[C@@H](C2)O1 (single isomer, unassigned) [Example 1-7A]
24 | NC(=O)c1cc(-c2ccc(F)cc2F)c2c(n1)O[C@@H](CC(F)(F)F)CC2 (single isomer, unassigned) [Example 3-8B]
195 | C[C@@H]1Cc2c(-c3ccc(F)cc3F)cc(C(N)=O)nc2O[C@@H]1CO [Example 2-2A, (2S,3R)-5-(2,4-difluorophenyl)-2-(hydroxymethyl)-3-methyl-3,4-dihydro-2H-pyrano[2,3-b]pyridine-7-carboxamide]
11 | C[C@H](OC(F)F)[C@H]1CCc2c(-c3ccc(F)cc3F)cc(C(N)=O)nc2O1 [Example 2-9C, (R)-2-((S)-1-(difluoromethoxy)ethyl)-5-(2,4-difluorophenyl)-3,4-dihydro-2H-pyrano[2,3-b]pyridine-7-carboxamide]
19 | NC(=O)c1cc(-c2ccc(F)cc2F)c2c(n1)O[C@H](COC(F)F)CC2 [Example 3-1B, (S)-2-((difluoromethoxy)methyl)-5-(2,4-difluorophenyl)-3,4-dihydro-2H-pyrano[2,3-b]pyridine-7-carboxamide]
1770 | Cn1cc(-c2cc(C(N)=O)nc3c2CC2CCC3O2)cn1 (single isomer, unassigned) [Example 1-4B, (6S,9R)- or (6R,9S)-4-(1-methyl-1H-pyrazol-4-yl)-6,7,8,9-tetrahydro-5H-6,9-epoxycyclo-hepta[b]pyridine-2-carboxamide]
28 | NC(=O)c1cc(-c2ccc(F)cc2F)c2c(n1)O[C@@H](CNCC(F)(F)F)CC2 (single isomer, unassigned) [Example 4-2B]
179 | NC(=O)c1cc(-c2ccc(F)cc2F)c2c(n1)O[C@@H](CO)CC2 (single isomer, unassigned) [Example 2-1B]
159 | NC(=O)c1cc(-c2ccc(F)cc2F)c2c(n1)[C@H]1CC[C@@H]2O1 (single isomer, unassigned) [Example 5-1A]
114 | C[C@@H](OC(F)F)[C@@H]1CCc2c(-c3ccc(F)cc3F)cc(C(N)=O)nc2O1 [Example 2-9B, (S)-2-((R)-1-(difluoromethoxy)ethyl)-5-(2,4-difluorophenyl)-3,4-dihydro-2H-pyrano[2,3-b]pyridine-7-carboxamide]

IC50 [nM] | SMILES
277 | NC(=O)c1cc(-c2ccc(F)cc2F)c2c(n1)COCC2 [Example 1-1, 4-(2,4-difluorophenyl)-5,8-dihydro-6H-pyrano[3,4-b]pyridine-2-carboxamide]
90 | NC(=O)c1cc(-c2ccc(F)cc2F)c2c(n1)O[C@H](C(F)F)CC2 [Example 3-7B, (S)-2-(difluoromethyl)-5-(2,4-difluorophenyl)-3,4-dihydro-2H-pyrano[2,3-b]pyridine-7-carboxamide]
26 | COC[C@@H]1CCc2c(-c3ccc(F)cc3F)cc(C(N)=O)nc2O1 (single isomer, unassigned) [Example 3-5A]
7 | C[C@@H]1Cc2c(-c3ccc(F)cc3F)cc(C(N)=O)nc2O[C@@H]1COC(F)F (single isomer, unassigned) [Example 3-9A]
57 | C[C@@H](OC(F)F)[C@H]1CCc2c(-c3ccc(F)cc3F)cc(C(N)=O)nc2O1 [Example 2-9D, (R)-2-((R)-1-(difluoromethoxy)ethyl)-5-(2,4-difluorophenyl)-3,4-dihydro-2H-pyrano[2,3-b]pyridine-7-carboxamide]
1800 | NC(=O)c1cc(-c2ncc(F)cc2F)c2c(n1)[C@@H]1CC[C@H](C2)O1 (single isomer, unassigned) [Example 1-6B]
326 | NC(=O)c1cc(-c2cnn(C(F)F)c2)c2c(n1)C1CCC(C2)O1 (single isomer, unassigned) [Example 1-5B, (6S,9R)- or (6R,9S)-4-(1-(difluoromethyl)-1H-pyrazol-4-yl)-6,7,8,9-tetrahydro-5H-6,9-epoxycyclo-hepta[b]pyridine-2-carboxamide]
6 | CC1(C)CCc2c(-c3ccc(F)cc3F)cc(C(N)=O)nc2O1 [Example 2-5, 5-(2,4-difluorophenyl)-2,2-dimethyl-3,4-dihydro-2H-pyrano[2,3-b]pyridine-7-carboxamide]
18 | NC(=O)c1cc(-c2ccc(F)cc2)c2c(n1)OC(COC(F)F)CC2 (single isomer, unassigned) [Example 3-2A, (S)- or (R)-2-((difluoro-methoxy)methyl)-5-(4-fluorophenyl)-3,4-dihydro-2H-pyrano[2,3-b]pyridine-7-carboxamide]
1490 | NC(=O)c1cc(-c2cnn(C(F)F)c2)c2c(n1)OC(COC(F)F)CC2 (single isomer, unassigned) [Example 3-4B, (R)- or (S)-2-((difluoro-methoxy)methyl)-5-(1-(difluoromethyl)-1H-pyrazol-4-yl)-3,4-dihydro-2H-pyrano[2,3-b]pyridine-7-carboxamide]
> 3000 | Cn1cc(-c2cc(C(N)=O)nc3c2CC2CCC3O2)cn1 (single isomer, unassigned) [Example 1-4A, (6R,9S)- or (6S,9R)-4-(1-methyl-1H-pyrazol-4-yl)-6,7,8,9-tetrahydro-5H-6,9-epoxycyclo-hepta[b]pyridine-2-carboxamide]
21 | NC(=O)c1cc(-c2ccc(F)cc2F)c2c(n1)[C@@H]1CC[C@H](C2)O1 (single isomer, unassigned) [Example 1-2B]
> 3000 | NC(=O)c1cc(-c2cnn(C(F)F)c2)c2c(n1)C1CCC(C2)O1 (single isomer, unassigned) [Example 1-5A, (6R,9S)- or (6S,9R)-4-(1-(difluoromethyl)-1H-pyrazol-4-yl)-6,7,8,9-tetrahydro-5H-6,9-epoxycyclo-hepta[b]pyridine-2-carboxamide]
86 | NC(=O)c1cc(-c2ccc(F)cc2)c2c(n1)OC(COC(F)F)CC2 (single isomer, unassigned) [Example 3-2B, (R)- or (S)-2-((difluoro-methoxy)methyl)-5-(4-fluorophenyl)-3,4-dihydro-2H-pyrano[2,3-b]pyridine-7-carboxamide]
52 | NC(=O)c1cc(-c2ccc(F)cc2F)c2c(n1)O[C@H](CF)CC2 (single isomer, unassigned) [Example 3-6A]
172 | NC(=O)c1cc(-c2ncc(Cl)cc2F)c2c(n1)[C@@H]1CC[C@H](C2)O1 (single isomer, unassigned) [Example 1-7B]
> 3000 | NC(=O)c1cc(-c2ncc(F)cc2F)c2c(n1)[C@H]1CC[C@@H](C2)O1 (single isomer, unassigned) [Example 1-6A]
2520 | Cc1ncc(-c2cc(C(N)=O)nc3c2CCC(COC(F)F)O3)s1 (single isomer, unassigned) [Example 3-3B, (R)- or (S)-2-((difluoro-methoxy)methyl)-5-(2-methylthiazol-5-yl)-3,4-dihydro-2H-pyrano[2,3-b]pyridine-7-carboxamide]

SMILES | IC50 [nM]
C[C@H]1Cc2c(-c3ccc(F)cc3F)cc(C(N)=O)nc2O[C@H]1CO [Example 2-2D, (2R,3S)-5-(2,4-difluorophenyl)-2-(hydroxmethyl)-3-methyl-3,4-dihydro-2H-pyrano[2,3-b]pyridine-7-carboxamide] | 81
C[C@@H]1Cc2c(-c3ccc(F)cc3F)cc(C(N)=O)nc2O[C@H]1COC(F)F [Example 3-9C, (2R,3R)-2-((difluoromethoxy)methyl)-5-(2,4-difluoropheny)-3-methyl-3,4-dihydro-2H-pyrano[2,3-b]pyridine-7-carboxamide] | 15
